# Laboratory results: publication PMC9344678, “BTApep-TAT peptide inhibits ADP-ribosylation of BORIS to induce DNA damage in cancer” (Molecular Cancer, 2022)
# Where no end group is shown, it is not given here.
# T1: BORIS-N1-258 (Homo sapiens, UniProt Q8NI51)
# T1 construct: The N terminal section of BORIS corresponding to AA 1–258 (BORIS-N1-258); 6xHis (C); made in house
# T1 sequence (Q8NI51 1-258): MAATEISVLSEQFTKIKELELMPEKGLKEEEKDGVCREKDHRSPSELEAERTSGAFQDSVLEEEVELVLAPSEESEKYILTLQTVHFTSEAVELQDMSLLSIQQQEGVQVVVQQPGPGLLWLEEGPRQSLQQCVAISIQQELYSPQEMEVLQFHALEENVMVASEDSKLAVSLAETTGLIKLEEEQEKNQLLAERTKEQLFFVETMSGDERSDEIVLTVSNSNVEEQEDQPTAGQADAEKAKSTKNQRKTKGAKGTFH
# T2: BORIS N-terminal region AA 1-258 (BORIS-N_(1-258)), His-tagged, from bacteria (human, UniProt Q8NI51 1-258, biotin (conjugated for loading onto the SSA sensor; position not stated; not said of the protein used free in solution or coated on plates))
# T2 construct: Cloned in the backbone of plasmid pFN6K; also called BORIS antigen; not shown: His6, C-terminal, kept
# T2 sequence (looked up): T1 sequence (Q8NI51 1-258)
# T3: BORIS-N_(1-258) expressed and purified from HEK293 cells (human, UniProt Q8NI51 1-258)
# T3 construct: source: HEK293 cells, expressed and purified
# T3 sequence (looked up): T1 sequence (Q8NI51 1-258)
# B1: Peptide 9 (synthesized, free in solution) (peptide)
# peptide: VHWDFRQWWQPS
# notes: 12-mer selected from the Ph.D.-12 phage display peptide library; The methods say that the peptides were synthesized and conjugated with biotin or FITC; also called peptide from phage clone 9; BTApep; source: synthetic peptide (China Peptides Co., Ltd.)
# B2: Peptide 2 (peptide)
# peptide: DWSSWVYRDPQT
# notes: 12-mer selected from the Ph.D.-12 phage display peptide library; source: synthetic peptide (China Peptides Co., Ltd.)
# B3: Peptide 9 labeled with biotin (peptide)
# peptide: VHWDFRQWWQPS
# modifications: also: biotin (position not given here)
# notes: 12-mer selected from the Ph.D.-12 phage display peptide library; also called BTApep-biotin; biotinylated peptide 9; source: synthetic peptide (China Peptides Co., Ltd.)
# B4: Phage clone 9 (peptide 9 displayed on phage) (peptide)
# chain: VHWDFRQWWQPSGGGS
# notes: 4 amino acid spacer that links the 12-mer to the N-terminus of a phage coat protein; Whole phage particle; source: purified phage clone from the Ph.D.-12 Phage Display Peptide Library (New England Biolabs); not shown: phage coat protein (Ph.D.-12 library), C-terminal, kept
# Assays:
# BORIS = assay: ADP ribosylation of BORIS under olaparib; type: cell-based; conditions: PARP inhibitor incubation
# Method: HeLa or H1299 cells were lysed in immunoprecipitation (IP) buffer (50 mM Tris–HCl pH 7.4, 150 mM NaCl, 1% NP-40, 1 mM EDTA, 5% glycerol) containing protease inhibitor cocktails. The cell lysates were incubated with mouse anti-Myc (CST, 2276) or rabbit anti-poly/mono-ADP Ribose (E6F6A) monoclonal antibody (CST, 83732) on a rotary shaker at 4 °C overnight. Mouse or rabbit IgG (Santa Cruz, sc-2025 or sc2027) was used as a negative control for detecting the pull-down specificity. Protein G beads (Santa Cruz, sc-2001) or protein A beads (Santa Cruz, sc-2002) were added and incubated at room temperature for 2 h. The agarose beads were collected by centrifugation, washed five times with IP buffer according to the manufacturer’s instructions, and eluted in SDS sample buffer for the subsequent Western blotting assay.
# PARP2 = conditions: ref [33], [49]; cited from earlier work
# BORIS-N198-228 peptide = assay: PARP1-catalyzed in vitro PARylation assay; type: biochemical; conditions: recombinant PARP1, ssDNA, 37 °C 30 min, dot blot anti-ADPr
# Method: Peptides (1–4 μg) incubated with different samples were added to 50 μL PARP1 reaction buffer (50 mM Tris–HCl at pH 7.4, 2 mM MgCl2, 200 μM NAD^+), which contained 0.2 μg of recombinant PARP1 (Trevigen, 4668–100-01) and 2.5 μg of ssDNA (Sigma, D8899), and reaction was carried out at 37 °C for 30 min. Low molecular weight peptide and PARP1 protein in the reactions were separated by a 30 kDa cutoff centrifugal filter (Millipore, UFC803096). Then, SDS loading buffer was added to separate peptides or proteins and analyzed by dot blotting using an anti- ADP ribosylation (ADPr) antibody.
# To further confirm ADP ribosylation at residues 198–228, the synthesized BORIS-N198-228 peptide was subjected to a PARP1-catalyzed in vitro PARylation assay. Single-strand DNA (ssDNA) was added to activate PARP1. The BORIS-N198-228 peptide was separated by centrifugal filtration, and its PARylation levels were examined by dot blotting using an anti-ADPr antibody. […] To determine the modification between residues 198–228, the BORIS-N198-228 peptide was pre-incubated with BTApep-TAT or His-TAT before processing for PARP1-catelyzed in vitro PARylation. […] Taken together, we provided evidence that ADP ribosylation of BORIS was responsible for the association with Ku70 and DNA repair. […]
# H1299 cells = assay: Proliferation of H1299 cells (MTT, cell counting); type: cell-based; conditions: 25 µM (Fig. 2D)
# Method: (§1) H1299 cells (RRID: CVCL_0060) were cultured in RPMI 1640 medium supplemented with 10% FBS. HEK293 (RRID:CVCL_0045) and HeLa (RRID:CVCL_0030) cells were cultured in Dulbecco's modified Eagle’s medium (DMEM) supplemented with 10% FBS and placed in 37 ℃ and 5% CO2 incubators. Cells were seeded in 6-well plates at 1 × 10^5 cells/well or in 96-well plates at 2000 cells/well for experiments. Cell viability was measured by MTT assay.
# (§2) Cells were plated and treated with BORIS-targeted peptide (BTApep-TAT) or negative control peptide (His-TAT) at concentrations of 10 µM, 25 µM, 50 µM and 100 µM for 3 days. Cell viability was measured by MTT assay. Cell apoptosis was measured by TUNEL assay (cat. # 40306ES20, Yeasen Biotech Co., Ltd) and Caspase-Glo 3/7 assay (G8090, Promega Corporation, an affiliate of Promega (Beijing) Biotech Co., Ltd.).
# HEK293 cells = assay: Proliferation of HEK293 cells; type: cell-based; conditions: 25 µM (Fig. 2D); normal cells not expressing BORIS
# Method: as §1, §2
# BORIS-N1-258 = biological target: T1, BORIS-N1-258; assay: BLI, BORIS-N1-258 immobilized on SSA sensor, free peptide in solution; type: binding; conditions: free peptide in PBS with 0.02% Tween 20
# Method: Twelve tandemly connected His was synthesized and conjugated with biotin or FITC as a negative control peptide by China Peptides Co., Ltd. The peptides were stored in powder at -80 °C. The peptides were dissolved in phosphate-buffered saline and filtered through a 0.22 µm filter to remove bacteria before use. The interaction between peptides and BORIS-N1-258 was measured by Bio-layer interferometry (BLI) in the ForteBio OctetRed system. The measurement was carried out in 5 steps: initial baseline duration, loading duration, baseline duration, association duration, and dissociation duration. In loading duration, 10 nM biotinylated peptides or 1 µM BORIS-N1-258 protein were immobilized on streptavidin-coated biosensors (ForteBio). The immobilization typically reached a response level of 4 nm. Association and dissociation curves were obtained through the addition of a dilution series of BORIS-N1-258 or peptides in PBS with 0.02% Tween 20 for the indicated period of time using Octet acquisition software. The binding data were fitted using Octet analysis software.
# The BORIS-N1-258 protein was conjugated with biotin and loaded onto an SSA sensor. The synthesized peptides were dissolved in PBS with 0.02% Tween 20.
# [1] = biological target: T2, BORIS N-terminal region AA 1-258 …; assay: BLI; ForteBio OctetRed; biotin-conjugated BORIS-N_(1-258) loaded onto an SSA sensor (1 µM in loading), free peptide in solution in PBS with 0.02% Tween 20; conditions: both partners purified
# [2] = biological target: T2, BORIS N-terminal region AA 1-258 …; assay: BLI; ForteBio OctetRed; biotin-labeled peptide 9 loaded onto an SA sensor (10 nM in loading), dilution series of BORIS-N_(1-258) in PBS with 0.02% Tween 20; conditions: both partners purified
# [3] = biological target: T3, BORIS-N_(1-258) expressed and purified …; assay: as above; conditions: both partners purified
# [4] = biological target: T2, BORIS N-terminal region AA 1-258 …; assay: ELISA; plates coated overnight at 4 °C with purified His-tagged BORIS-N_(1-258) (carbonate buffer, pH 9.6); purified phage clones in serial dilutions, 2 h at RT; detection by HRP-conjugated anti-M13 antibody; conditions: both partners purified
molecule,measurement,setting,value
"O=C(c1cc(Cc2n[nH]c(=O)c3ccccc23)ccc1F)N1CCN(C(=O)C2CC2)CC1 [Olaparib, olaparib]",effect on ADP ribosylation of BORIS,BORIS,did not attenuate ADP ribosylation of BORIS
same,inhibition of PARP2,PARP2,inhibits
"BORIS-N198-228 peptide: synthesized peptide of BORIS residues 198–228 (EQLFFVETMSGDERSDEIVLTVSNSNVEEQE; UniProt Q8NI51 198-228, looked up, fragment)",PARylation of the peptide itself,BORIS-N198-228 peptide,accumulated in proportion to its abundance
BTApep: BORIS-targeted peptide lacking the TAT penetrating peptide (VHWDFRQWWQPS),suppression of proliferation of H1299 cells,H1299 cells,did not inhibit cell proliferation
same,suppression of proliferation of HEK293 cells,HEK293 cells,did not inhibit cell proliferation
DWSSWVYRDPQT [Peptide 2],Kd,"BORIS-N1-258; bacterial BORIS-N1-258 on SSA sensor, read-out: binding affinity (Kd)",315 µM
RFDHWVWQSQPW [Scrambled peptide 9],affinity in BLI,"BORIS-N1-258; result in words, BORIS-N1-258 on SSA sensor",did not have any measurable affinity
B1,Kd,[1],86.4 µM
B2,Kd,[1],314 µM
B3,Kd,[2],0.0053 µM
same,Kd,[3],0.00637 µM
B4,binding result,[4],binds
